Test results: PMC7894522, “Structure Based Design of Bicyclic Peptide Inhibitors of RbAp48” (Angewandte Chemie (International Ed. in English), 2020)
Starred links: 1 amine or outer side, 2 acyl side, 3 side chain; linkers in the order of their positions; H or OH if unused. Positions of bridges follow the written chain, without caps; N, C: chain ends. Residues, ends and D or L forms follow the SMILES beside them. TBMB = c1c(C[*:1])cc(C[*:3])cc1C[*:2]

Tests used:
RbAp48 [1] = target: T1, RbAp48 (Homo sapiens, UniProt Q09028); test: Isothermal titration calorimetry (direct and competitive); type: binding; set-up: Full length RbAp48 was cloned; His tag followed by 3C cleavage site (N, cleaved yes); made in house; host or cells: Sf9 insect cells; settings: competitive ITC with weak ligand 40
Description: The weak ligand interferes with binding of the strong ligand allowing the use of higher concentrations and therefore stronger signal. The actual affinity and thermodynamic parameters can then be calculated from the measured values.[ ^20 , ^21 ] The long linear peptide 2, monocyclic peptide 8, and bicyclic peptide 33 were analysed using this method and the results are reported in Table 2 (See Figure 4 A and Supplemental Figure 13–16). […] An effect which could not clearly be observed by the FP assay as it's lower limits were reached.
Protein expression and purification
RbAp48 was expressed and purified by the Dortmund Protein Facility. Full length RbAp48 was cloned into a pOPIN vector ligating it to an N-terminal His tag followed by a 3C cleavage site. The protein was expressed from Sf9 cells for 48 h. Cells were harvested and lysed and the protein was purified by loading onto a HisTrap FF crude 5 ml column followed by on-column cleavage using Precission protease. The cleaved protein was then further purified using a HiLoad 26/60 Superdex 200 column.
(§1) Fluorescence polarization assay […]
Isothermal Titration Calorimetry
Isothermal titration calorimetry measurements w ere performed using a Microcal ITC-200 device. The buffer for all measurements consisted of 20 mM Tris, 150 mM NaCl, pH 7.5 and all measurements were performed at 25°C in duplicate except for 8. RbAp48 was dialyzed overnight using a 10 kDa MWCO Slide-A-lizer dialysis membrane and peptide samples were dissolved in the dialysis buffer. Direct measurements of 40 were perfomed by titrating the peptide ( 800 µM) into the cell containing RbAp48 (40 µM) using 2 µl injection after an initial injection of 0.5 µl. […]
by competitive ITC where the protein is premixed with a weak ligand ( 40).[1] Competitive measurements were performed by titrating 2, 8 or 33 (300 µM) into the cell containing RbAp48 (30 µM) and 40 (416 µM). Other conditions were the same as for the direct measurement described above.
Ki was calculated according using the following formula: […]

[2] = Peptide stability in MDA-MB-231 whole cell lysate; type: in vitro ADME; settings: human, 37°C, HPLC, duplicate
Description: To investigate whether the cyclization strategy influences the stability of the peptides we incubated 3, 8 and 33 in MDA‐MB‐231 cell lysate. […]
as §1
Isothermal Titration Calorimetry […]
Peptide stability was tested in whole cell lysate prepared from MDA-MB-231 cells using the freeze-thaw method. Peptides were dissolved in lysate (normalized to 5mg/ml protein using PBS) at 600 µM and incubated at 37°C. Samples were taken at different time points and mixed with an equal amount of MeOH containing 0.05 mg/ml ethylparaben as an i nternal standard. The samples were mixed and kept on ice for 15 minutes before centrifugation at 14000 rpm at 4 °C for 10 min. The supernatant was carefully removed and analyzed by HPLC. Peptide peaks were integrated and surface areas compared […]
Measurements were performed in duplicate.

RbAp48 [3] = target: T1, RbAp48; test: Competitive fluorescence polarization (FP) assay using complex of peptide 1 and RbAp48; type: binding; set-up: Full length RbAp48 was cloned; His tag followed by 3C cleavage site (N, cleaved yes); made in house; host or cells: Sf9 insect cells; settings: Table 1; competitive FP, tracer peptide 1 1 nM, RbAp48 15 nM, 20 mM Tris-HCl, 150 mM NaCl, 0.01% Tween-20, pH 7.5, 30 min room temperature; lower limit set by 15 nM protein; read-out: IC50
Method in brief: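 Sf9-expressed full-length RbAp48 (tag cleaved), 15 nM, displaced from 1 nM fluorescent peptide tracer in 20 mM Tris-HCl pH 7.5, 150 mM NaCl, 0.01% Tween-20. Read by FP (ex 485/em 535 nm) after 30 min at room temperature.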

T1 sequence (Q09028 whole entry): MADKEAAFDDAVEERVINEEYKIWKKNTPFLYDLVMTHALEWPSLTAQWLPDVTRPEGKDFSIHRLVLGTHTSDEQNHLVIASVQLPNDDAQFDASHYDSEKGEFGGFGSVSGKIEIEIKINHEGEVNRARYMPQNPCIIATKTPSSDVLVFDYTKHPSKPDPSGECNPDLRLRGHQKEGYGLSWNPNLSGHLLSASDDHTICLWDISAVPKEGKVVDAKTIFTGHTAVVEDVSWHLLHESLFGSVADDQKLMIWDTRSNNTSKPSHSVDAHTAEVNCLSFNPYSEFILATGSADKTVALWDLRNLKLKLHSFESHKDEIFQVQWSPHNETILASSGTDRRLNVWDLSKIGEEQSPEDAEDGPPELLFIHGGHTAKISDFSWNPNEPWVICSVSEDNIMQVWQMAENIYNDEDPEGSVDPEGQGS

Kd (RbAp48 [1]): 8.56 nM
half-life at 600 µM ([2]; MDA-MB-231 whole cell lysate (freeze-thaw), 5 mg/ml protein in PBS, peptide 600 µM, read-out: t 1/2 (half-life)): 94.3 min
remaining at 1 h, 600 µM ([2]; T 60 min, MDA-MB-231 whole cell lysate 5 mg/ml protein, 600 µM, read-out: % left): 57.8%
remaining at 2 h, 600 µM ([2]; T 120 min, MDA-MB-231 whole cell lysate 5 mg/ml protein, 600 µM, read-out: % left): 41.4%
remaining at 4 h, 600 µM ([2]; T 240 min, MDA-MB-231 whole cell lysate 5 mg/ml protein, 600 µM, read-out: % left): 0%
IC50 (RbAp48 [3]): 12.3 ± 2 nM
Compound: CC(=O)N[C@H]1CSCc2cc3cc(c2)CSC[C@@H](C(=O)N[C@@H](C)C(N)=O)NC(=O)[C@@H]2CCCN2C(=O)[C@H](CCCCN)NC(=O)[C@H](Cc2ccc(O)cc2)NC(=O)[C@@H]2CCCN2C(=O)[C@H](CCCNC(=N)N)NC(=O)[C@H](CCCNC(=N)N)NC(=O)[C@H](C)NC(=O)[C@H](CSC3)NC(=O)[C@H](CCCNC(=N)N)NC(=O)[C@H](CCCCN)NC(=O)[C@H]([C@@H](C)O)NC1=O [Peptide 33] (Ac-CTKRCARRPYKPCA-NH2; linker 1-5-13 via TBMB)
